Experimental data from publication PMC8037182, “Solvothermal Synthesis of Multiple Dihydropyrimidinones at a Time as Inhibitors of Eg5” (Molecules, 2021).

Experiments:
[1] = test system: Hela cell line; test: Cytotoxicity MTS assay, Hela cell line; type: cell-based; conditions: for OD490 value, Mean / OD490 value, Well 1 / OD490 value, Well 2 / OD490 value, Well 3: Hela cell line, MTS
Method: (§1) The positive compounds (IC50 < 100 μM) obtained from the primary Eg5 motor protein ATPase assay were tested for antiproliferative activity in vitro against Caco-2 cell line, Hela cell line, L929 cell line and T24 cell line by performing MTS assay. Cells were introduced into 96-well plates at a density of 1000 cells per well. After 24 h incubation, the cells were exposed with compounds at final concentrations ranging from 0.5 to 100 µM for 24 h. DMSO was used at a final concentration of 0.025% as blank control, monastrol was used as the positive control. Then 20 µL (CellTiter 96® AQueous One Solution Promega, Madison, WI, USA) reagent was added in each well. After 2 h at 37 °C in a 80% humidified, 5% CO2 atmosphere, the absorbance at 490 nm was recorded using a microplate reader (BIO-RAD iMark^TM). The results were obtained in three independent duplicate experiments. The primary data were shown in Supplementary Materials Tables S4–S7. The IC50 values for these compounds were calculated from a non-linear regression graph plotted between the percentage of cell viability and concentration with SPSS17.0 software.

[2] = test system: T24 cell line; test: Cytotoxicity MTS assay, T24 cell line; type: cell-based; conditions: for OD490 Mean / OD490 Well 1 / OD490 Well 2 / OD490 Well 3: T24 cell line
Method: as §1

## CCOc1ccccc1C1NC(=S)NC(C)=C1C(=O)Nc1ccc(Cl)cc1 (centres unmarked) [C9]
[1]; 0.5μM, first assay
  OD490 value, Mean: 2.5086
  OD490 value, Well 1: 2.5337
  OD490 value, Well 2: 2.5147
  OD490 value, Well 3: 2.4773
[1]; 0.5μM, second assay
  OD490 value, Mean: 2.5027
  OD490 value, Well 1: 2.5377
  OD490 value, Well 2: 2.5102
  OD490 value, Well 3: 2.4603
[1]; 0.5μM, third assay
  OD490 value, Mean: 2.5209
  OD490 value, Well 1: 2.7845
  OD490 value, Well 2: 2.5536
  OD490 value, Well 3: 2.2245
[1]; 1μM, first assay
  OD490 value, Mean: 2.3583
  OD490 value, Well 1: 2.1436
  OD490 value, Well 2: 2.5164
  OD490 value, Well 3: 2.4149
[1]; 1μM, second assay
  OD490 value, Mean: 2.3955
  OD490 value, Well 1: 2.2145
  OD490 value, Well 2: 2.4935
  OD490 value, Well 3: 2.4784
[1]; 1μM, third assay
  OD490 value, Mean: 2.4734
  OD490 value, Well 1: 2.4685
  OD490 value, Well 2: 2.5532
  OD490 value, Well 3: 2.3985
[1]; 10μM, first assay
  OD490 value, Mean: 2.3086
  OD490 value, Well 1: 2.1660
  OD490 value, Well 2: 2.3778
  OD490 value, Well 3: 2.3820
[1]; 10μM, second assay
  OD490 value, Mean: 2.1859
  OD490 value, Well 1: 2.2135
  OD490 value, Well 2: 2.1456
  OD490 value, Well 3: 2.1987
[1]; 10μM, third assay
  OD490 value, Mean: 2.4047
  OD490 value, Well 1: 2.2123
  OD490 value, Well 2: 2.5652
  OD490 value, Well 3: 2.4365
[1]; 25μM, first assay
  OD490 value, Mean: 1.8211
  OD490 value, Well 1: 1.4666
  OD490 value, Well 2: 1.9622
  OD490 value, Well 3: 2.0346
[1]; 25μM, second assay
  OD490 value, Mean: 1.8416
  OD490 value, Well 1: 1.7589
  OD490 value, Well 2: 1.8637
  OD490 value, Well 3: 1.9021
[1]; 25μM, third assay
  OD490 value, Mean: 1.8662
  OD490 value, Well 1: 1.7769
  OD490 value, Well 2: 1.8252
  OD490 value, Well 3: 1.9965
[1]; 50μM, first assay
  OD490 value, Mean: 1.6538
  OD490 value, Well 1: 1.2953
  OD490 value, Well 2: 1.8006
  OD490 value, Well 3: 1.8654
[1]; 50μM, second assay
  OD490 value, Mean: 1.6346
  OD490 value, Well 1: 1.5694
  OD490 value, Well 2: 1.6357
  OD490 value, Well 3: 1.6987
[1]; 50μM, third assay
  OD490 value, Mean: 1.6911
  OD490 value, Well 1: 1.6532
  OD490 value, Well 2: 1.7755
  OD490 value, Well 3: 1.6445
[1]; 100μM, first assay
  OD490 value, Mean: 1.1310
  OD490 value, Well 1: 0.9154
  OD490 value, Well 2: 1.2917
  OD490 value, Well 3: 1.1859
[1]; 100μM, second assay
  OD490 value, Mean: 1.0983
  OD490 value, Well 1: 1.1234
  OD490 value, Well 2: 1.1125
  OD490 value, Well 3: 1.0589
[1]; 100μM, third assay
  OD490 value, Mean: 1.1051
  OD490 value, Well 1: 1.0232
  OD490 value, Well 2: 1.1136
  OD490 value, Well 3: 1.1784
[1]; Homo sapiens, HeLa, 24 h, MTS assay, 24 h exposure
  IC50: 75.6 µM
[2]; Homo sapiens, T-24, MTS assay, 24 h exposure
  IC50: 103 µM
[2]; 0.5μM, first assay
  OD490 Mean: 1.7287
  OD490 Well 1: 1.7105
  OD490 Well 2: 1.7618
  OD490 Well 3: 1.7137
[2]; 0.5μM, second assay
  OD490 Mean: 1.6993
  OD490 Well 1: 1.7012
  OD490 Well 2: 1.6854
  OD490 Well 3: 1.7112
[2]; 0.5μM, third assay
  OD490 Mean: 1.6796
  OD490 Well 1: 1.7151
  OD490 Well 2: 1.6985
  OD490 Well 3: 1.6252
[2]; 1μM, first assay
  OD490 Mean: 1.7475
  OD490 Well 1: 1.7891
  OD490 Well 2: 1.7321
  OD490 Well 3: 1.7213
[2]; 1μM, second assay
  OD490 Mean: 1.6914
  OD490 Well 1: 1.6854
  OD490 Well 2: 1.6687
  OD490 Well 3: 1.7201
[2]; 1μM, third assay
  OD490 Mean: 1.6844
  OD490 Well 1: 1.6654
  OD490 Well 2: 1.6854
  OD490 Well 3: 1.7023
[2]; 10μM, first assay
  OD490 Mean: 1.7610
  OD490 Well 1: 1.7529
  OD490 Well 2: 1.7204
  OD490 Well 3: 1.8096
[2]; 10μM, second assay
  OD490 Mean: 1.6914
  OD490 Well 1: 1.6952
  OD490 Well 2: 1.7032
  OD490 Well 3: 1.6758
[2]; 10μM, third assay
  OD490 Mean: 1.6899
  OD490 Well 1: 1.6523
  OD490 Well 2: 1.6854
  OD490 Well 3: 1.7320
[2]; 25μM, first assay
  OD490 Mean: 1.6722
  OD490 Well 1: 1.6737
  OD490 Well 2: 1.6555
  OD490 Well 3: 1.6875
[2]; 25μM, second assay
  OD490 Mean: 1.5562
  OD490 Well 1: 1.5784
  OD490 Well 2: 1.5687
  OD490 Well 3: 1.5214
[2]; 25μM, third assay
  OD490 Mean: 1.5261
  OD490 Well 1: 1.5255
  OD490 Well 2: 1.4895
  OD490 Well 3: 1.5632
[2]; 50μM, first assay
  OD490 Mean: 1.4241
  OD490 Well 1: 1.3950
  OD490 Well 2: 1.4682
  OD490 Well 3: 1.4091
[2]; 50μM, second assay
  OD490 Mean: 1.2984
  OD490 Well 1: 1.3242
  OD490 Well 2: 1.3021
  OD490 Well 3: 1.2688
[2]; 50μM, third assay
  OD490 Mean: 1.2717
  OD490 Well 1: 1.2854
  OD490 Well 2: 1.2312
  OD490 Well 3: 1.2985
[2]; 100μM, first assay
  OD490 Mean: 1.1300
  OD490 Well 1: 1.1347
  OD490 Well 2: 1.0869
  OD490 Well 3: 1.1684
[2]; 100μM, second assay
  OD490 Mean: 1.0488
  OD490 Well 1: 1.1133
  OD490 Well 2: 1.0101
  OD490 Well 3: 1.0230
[2]; 100μM, third assay
  OD490 Mean: 1.0526
  OD490 Well 1: 1.0120
  OD490 Well 2: 1.1123
  OD490 Well 3: 1.0334
